Experimental data taken from ChEMBL document CHEMBL4308841, “Synthesis, in vitro antiproliferative activity, and kinase inhibitory effects of pyrazole-containing diarylureas and diarylamides” (Eur J Med Chem, 2018).

Key:
A549 = assay: Growth inhibition of human A549/ATCC cells incubated for 48 hrs by sulforhodamine B assay; format: functional, cell-based; conditions: A549, 48 h
NCI-H460 = assay: Growth inhibition of human NCI-H460 cells incubated for 48 hrs by sulforhodamine B assay; format: functional, cell-based; conditions: NCI-H460, 48 h
SNB-75 = assay: Growth inhibition of human SNB75 cells incubated for 48 hrs by sulforhodamine B assay; format: functional, cell-based; conditions: SNB-75, 48 h
U-251 = assay: Growth inhibition of human U251 cells incubated for 48 hrs by sulforhodamine B assay; format: functional, cell-based; conditions: U-251, 48 h
786-0 [1] = assay: Growth inhibition of human 786-0 cells incubated for 48 hrs by sulforhodamine B assay; format: functional, cell-based; conditions: 786-0, 48 h
A498 = assay: Growth inhibition of human A498 cells incubated for 48 hrs by sulforhodamine B assay; format: functional, cell-based; conditions: A498, 48 h
RXF 393 [2] = assay: Growth inhibition of human RXF393 cells incubated for 48 hrs by sulforhodamine B assay; format: functional, cell-based; conditions: RXF 393, 48 h
UO-31 = assay: Growth inhibition of human UO31 cells incubated for 48 hrs by sulforhodamine B assay; format: functional, cell-based; conditions: UO-31, 48 h
NCI-H522 [3] = assay: Growth inhibition of human NCI-H522 cells assessed as cell growth at 0.01 uM incubated for 48 hrs by sulforhodamine B assay relative to control; format: functional; conditions: NCI-H522, 48 h, read-out: Activity
COLO 205 = assay: Growth inhibition of human COLO205 cells assessed as cell growth at 0.01 uM incubated for 48 hrs by sulforhodamine B assay relative to control; format: functional; conditions: COLO 205, 48 h, read-out: Activity
HCT-15 = assay: Growth inhibition of human HCT15 cells assessed as cell growth at 0.01 uM incubated for 48 hrs by sulforhodamine B assay relative to control; format: functional; conditions: HCT-15, 48 h, read-out: Activity
SK-MEL-2 = assay: Growth inhibition of human SK-MEL-2 cells assessed as cell growth at 0.01 uM incubated for 48 hrs by sulforhodamine B assay relative to control; format: functional; conditions: SK-MEL-2, 48 h, read-out: Activity
SK-OV-3 [4] = assay: Growth inhibition of human SKOV3 cells assessed as cell growth at 0.01 uM incubated for 48 hrs by sulforhodamine B assay relative to control; format: functional; conditions: SK-OV-3, 48 h, read-out: Activity
RXF 393 [5] = assay: Growth inhibition of human RXF393 cells assessed as cell growth at 0.01 uM incubated for 48 hrs by sulforhodamine B assay relative to control; format: functional; conditions: RXF 393, 48 h, read-out: Activity
Hs-578T [6] = assay: Growth inhibition of human Hs578T cells assessed as cell growth at 0.01 uM incubated for 48 hrs by sulforhodamine B assay relative to control; format: functional; conditions: read-out: Activity
HL-60(TB) = assay: Growth inhibition of human HL-60(TB) cells assessed as cell growth at 0.1 uM incubated for 48 hrs by sulforhodamine B assay relative to control; format: functional; conditions: HL-60, 48 h, read-out: Activity
NCI-H23 = assay: Growth inhibition of human NCI-H23 cells assessed as cell growth at 0.1 uM incubated for 48 hrs by sulforhodamine B assay relative to control; format: functional; conditions: NCI-H23, 48 h, read-out: Activity
SF-539 = assay: Growth inhibition of human SF539 cells assessed as cell growth at 0.1 uM incubated for 48 hrs by sulforhodamine B assay relative to control; format: functional; conditions: SF-539, 48 h, read-out: Activity
ACHN = assay: Growth inhibition of human ACHN cells assessed as cell growth at 0.1 uM incubated for 48 hrs by sulforhodamine B assay relative to control; format: functional; conditions: read-out: Activity
RXF 393 [7] = assay: Growth inhibition of human RXF393 cells assessed as cell growth at 0.1 uM incubated for 48 hrs by sulforhodamine B assay relative to control; format: functional; conditions: RXF 393, 48 h, read-out: Activity
BT-549 = assay: Growth inhibition of human BT549 cells assessed as cell growth at 0.1 uM incubated for 48 hrs by sulforhodamine B assay relative to control; format: functional; conditions: BT-549, 48 h, read-out: Activity
SK-OV-3 [8] = assay: Growth inhibition of human SKOV3 cells assessed as cell growth at 1 uM incubated for 48 hrs by sulforhodamine B assay relative to control; format: functional; conditions: SK-OV-3, 48 h, read-out: Activity
786-0 [9] = assay: Growth inhibition of human 786-0 cells assessed as cell growth at 1 uM incubated for 48 hrs by sulforhodamine B assay relative to control; format: functional; conditions: 786-0, 48 h, read-out: Activity
DU-145 = assay: Growth inhibition of human DU145 cells assessed as cell growth at 1 uM incubated for 48 hrs by sulforhodamine B assay relative to control; format: functional; conditions: DU-145, 48 h, read-out: Activity
RPMI-8226 = assay: Growth inhibition of human RPMI8226 cells assessed as cell growth at 100 uM incubated for 48 hrs by sulforhodamine B assay relative to control; format: functional; conditions: RPMI-8226, 48 h, read-out: Activity
NCI-H522 [10] = assay: Growth inhibition of human NCI-H522 cells assessed as cell growth at 100 uM incubated for 48 hrs by sulforhodamine B assay relative to control; format: functional; conditions: NCI-H522, 48 h, read-out: Activity
SW-620 = assay: Growth inhibition of human SW620 cells assessed as cell growth at 100 uM incubated for 48 hrs by sulforhodamine B assay relative to control; format: functional; conditions: SW-620, 48 h, read-out: Activity
Hs-578T [11] = assay: Growth inhibition of human Hs578T cells assessed as cell growth at 100 uM incubated for 48 hrs by sulforhodamine B assay relative to control; format: functional; conditions: read-out: Activity
[12] = read-out: LC50 (the source's name)
[13] = read-out: pLC50 (the source's name) (converted)

For `COc1cc(Cl)cc(-c2nn(-c3cccc(NC(=O)Nc4cc(C(F)(F)F)cc(C(F)(F)F)c4)c3)cc2-c2ccncc2)c1`, which IC50 (A549) is on record?
The IC50 was 370 nM.

What about the GI50 (A549; read-out: GI50) of the same compound?
Its GI50 is 372 nM.

And the CC50 (A549; [12])?
Its CC50 is 3480 nM.

What about the TGI (A549; read-out: TGI) of the same compound?
Its TGI is 4680 nM.

What about the GI50 (A549; read-out: pGI50 (converted)) of the same compound?
The GI50 was 372 nM.

What about the CC50 (A549; [13]) of the same compound?
The CC50 was 34700 nM.

What about the TGI (A549; read-out: pTGI (converted)) of the same compound?
The TGI was 4680 nM.

What about the IC50 (NCI-H460) of the same compound?
The IC50 was 380 nM.

What about the GI50 (NCI-H460; read-out: GI50) of the same compound?
The GI50 was 377 nM.

And the TGI (NCI-H460; read-out: TGI)?
The TGI was 1760 nM.

And the GI50 (NCI-H460; read-out: pGI50 (converted))?
The GI50 was 380 nM.

And the CC50 (NCI-H460; [13])?
Its CC50 is 17400 nM.

And the TGI (NCI-H460; read-out: pTGI (converted))?
The TGI was 1780 nM.

What about the IC50 (SNB-75) of the same compound?
The IC50 was 850 nM.

What about the GI50 (SNB-75; read-out: GI50) of the same compound?
The GI50 was 848 nM.

And the TGI (SNB-75; read-out: TGI)?
Its TGI is 5830 nM.

And the GI50 (SNB-75; read-out: pGI50 (converted))?
Its GI50 is 851 nM.

What about the CC50 (SNB-75; [13]) of the same compound?
The CC50 was 70800 nM.

What about the TGI (SNB-75; read-out: pTGI (converted)) of the same compound?
Its TGI is 5890 nM.

What about the IC50 (U-251) of the same compound?
Its IC50 is 320 nM.

And the GI50 (U-251; read-out: GI50)?
Its GI50 is 324 nM.

What about the CC50 (U-251; [12]) of the same compound?
Its CC50 is 43 nM.

What about the TGI (U-251; read-out: TGI) of the same compound?
Its TGI is 1310 nM.

What about the GI50 (U-251; read-out: pGI50 (converted)) of the same compound?
Its GI50 is 324 nM.

What about the CC50 (U-251; [13]) of the same compound?
The CC50 was 4370 nM.

And the TGI (U-251; read-out: pTGI (converted))?
The TGI was 1320 nM.

And the IC50 (786-0 [1])?
The IC50 was 570 nM.

What about the GI50 (786-0 [1]; read-out: GI50) of the same compound?
Its GI50 is 558 nM.

And the CC50 (786-0 [1]; [12])?
The CC50 was 63.1 nM.

And the TGI (786-0 [1]; read-out: TGI)?
The TGI was 2170 nM.

And the GI50 (786-0 [1]; read-out: pGI50 (converted))?
Its GI50 is 562 nM.

What about the CC50 (786-0 [1]; [13]) of the same compound?
Its CC50 is 6310 nM.

And the TGI (786-0 [1]; read-out: pTGI (converted))?
The TGI was 2190 nM.

What about the IC50 (A498) of the same compound?
Its IC50 is 390 nM.

What about the GI50 (A498; read-out: GI50) of the same compound?
The GI50 was 350 nM.

What about the CC50 (A498; [12]) of the same compound?
The CC50 was 33.4 nM.

What about the TGI (A498; read-out: TGI) of the same compound?
Its TGI is 3590 nM.

What about the GI50 (A498; read-out: pGI50 (converted)) of the same compound?
The GI50 was 389 nM.

And the CC50 (A498; [13])?
Its CC50 is 33100 nM.

What about the TGI (A498; read-out: pTGI (converted)) of the same compound?
The TGI was 3630 nM.

And the IC50 (RXF 393 [2])?
The IC50 was 1260 nM.

And the LC50 (RXF 393 [2])?
Its LC50 is 14800 nM.

And the TGI (RXF 393 [2]; read-out: TGI)?
Its TGI is 3920 nM.

And the GI50 (RXF 393 [2]; read-out: pGI50 (converted))?
The GI50 was 1260 nM.

What about the TGI (RXF 393 [2]; read-out: pTGI (converted)) of the same compound?
The TGI was 3890 nM.

What about the IC50 (UO-31) of the same compound?
The IC50 was 260 nM.

And the GI50 (UO-31; read-out: GI50)?
Its GI50 is 254 nM.

What about the CC50 (UO-31; [12]) of the same compound?
The CC50 was 59.7 nM.

And the TGI (UO-31; read-out: TGI)?
The TGI was 1580 nM.

What about the GI50 (UO-31; read-out: pGI50 (converted)) of the same compound?
The GI50 was 263 nM.

And the CC50 (UO-31; [13])?
The CC50 was 6920 nM.

What about the TGI (UO-31; read-out: pTGI (converted)) of the same compound?
The TGI was 1580 nM.

And the growth at 0.01 µM (NCI-H522 [3])?
The growth at 0.01 µM was 93%.

What about the growth at 0.01 µM (COLO 205) of the same compound?
The growth at 0.01 µM was 98%.

And the growth at 0.01 µM (HCT-15)?
The growth at 0.01 µM was 93%.

And the growth at 0.01 µM (SK-MEL-2)?
The growth at 0.01 µM was 103%.

And the growth at 0.01 µM (SK-OV-3 [4])?
Its growth at 0.01 µM is 100%.

What about the growth at 0.01 µM (RXF 393 [5]) of the same compound?
The growth at 0.01 µM was 96%.

What about the growth at 0.01 µM (Hs-578T [6]) of the same compound?
The growth at 0.01 µM was 97%.

And the growth at 0.1 µM (HL-60(TB))?
The growth at 0.1 µM was 88%.

And the growth at 0.1 µM (NCI-H23)?
The growth at 0.1 µM was 95%.

And the growth at 0.1 µM (SF-539)?
Its growth at 0.1 µM is 102%.

And the growth at 0.1 µM (ACHN)?
The growth at 0.1 µM was 99%.

And the growth at 0.1 µM (RXF 393 [7])?
The growth at 0.1 µM was 101%.

What about the growth at 0.1 µM (BT-549) of the same compound?
Its growth at 0.1 µM is 89%.

What about the growth at 1 µM (SK-OV-3 [8]) of the same compound?
The growth at 1 µM was 43%.

And the growth at 1 µM (786-0 [9])?
Its growth at 1 µM is 38%.

And the growth at 1 µM (DU-145)?
The growth at 1 µM was 27%.

And the growth at 100 µM (RPMI-8226)?
The growth at 100 µM was -8%.

What about the growth at 100 µM (NCI-H522 [10]) of the same compound?
The growth at 100 µM was -69%.

What about the growth at 100 µM (SW-620) of the same compound?
Its growth at 100 µM is -72%.

What about the growth at 100 µM (Hs-578T [11]) of the same compound?
The growth at 100 µM was -25%.
